Experimental data published in US20120315290A1, “INHIBITORS OF LL-37 MEDIATED IMMUNE REACTIVITY TO SELF NUCLEIC ACIDS” (BOARD OF REGENTS, THE UNIVERSITY OF TEXAS SYSTEM, priority 2006, published 2012).
“Also recorded” adds a separate entry of the source.

How the values were obtained:
human genomic DNA = assay: Complex formation with DNA (ethidium bromide intercalation, size exclusion HPLC); format: binding
Source text: (A) Emission spectra of human genomic DNA intercalated with Ethimidium bromide in the presence of increasing doses of LL-37. (B) Size exclusion HPLC of LL-37 alone, mut-LL-37 alone or DNA premixed with LL-37 or mut-37. […] Absorbance scales are different to accommodate the DNA peak.

B16 tumors = assay: Intratumoral or intramuscular injection, cytokine mRNA by real-time PCR; format: in vivo, C57BL/6 mice
Experimental: […] of LL-37, CpG-A or PBS alone was injected into B16 tumors grown for 7 days in Flt-L treated mice. Tumors were harvested after 6, 24, 48 and 72 h, total RNA was extracted and expression of indicated cytokines was measured by real-time PGR. Data represent expression relative to GAPDH RNA. Some mice were injected with […] of LL-37 for 3 times (t0, t24 and t48) and tumor was harvested at 72 h for RNA expression analysis.
LL-37, CpG, or saline (PBS) was injected into B16 tumors grown for 7 days in Flt-L treated mice. Tumors were harvested after 6, 24, 48 and 72 h, total RNA was extracted and expression of indicated cytokines was measured by real-time PGR. Data represent expression relative to GAPDH RNA. Data is representative of 5 mice.
[…] of LL-37 were injected into 7d-established B16 skin tumors and muscle tissue of the same mice. After 6 h tumor and muscle tissue were collected for RT-PCR analysis of IFN-a2 mRNA expression. Data represent expression relative to GAPDH RNA
In another set of experiments, 100 μg of LL-37, CpG-A or PBS alone was injected into B16 tumors grown for 7 days in Flt-L treated mice. Tumors were harvested after 6, 24, 48 and 72 h, total RNA was extracted and expression of indicated cytokines was measured by real-time PCR. […] Some mice were injected with 100 μg of LL-37 for 3 times (t0, t24 and t48) and tumor was harvested at 72 h or RNA expression analysis.
Intratumoral injection of LL-37 into native unmodified B16 melanoma induces potent type I IFN expression. 3×10^5 native B16 melanoma cells were inoculated into C57BL/6 mice. After 7 days, tumors were injected with 100 μg of LL-37, 40 μg CpG-2216 (CpG-A), or saline (PBS). Because LL-37-DNA binding (which will occur in the tumor) is optimal at a 3:1-5:1 ratio, we injected approximately 3 times more LL-37 than CpG-DNA. Tumors were harvested at 6 h, 24 h, 48 h, and 72 h after injection and total RNA was isolated and processed. Expression of IFN-α2 mRNA was measured by real-time PCR and normalized for expression of GAPDH mRNA.
LL-37 can induce type I IFN expression when injected into tumors but not into healthy tissue. Because LL-37 requires the presence of self-DNA released by dying cells to induce pDC activation to produce type I IFN, we next asked whether LL-37 could selectively induce type I IFN expression in tumors (containing a high degree of cells death) and not in healthy tissue. To address this question we injected LL-37 (100 μg) into subcutaneously implanted B16 tumors as well as healthy muscle tissue. 6 h after injection, tissues were collected and IFN-α2 mRNA expression was measured by real-time PCR, as described in C12.

U937 = assay: Binding and protection of DNA released by dying tumor cells (electrophoresis of supernatants); format: cell-based, human; details: irradiated tumor cells, 24 h culture
Experimental: (a) U937 were UV-irradiated to induce apoptosis and cultured for 24 h, or rendered necrotic by repeated freeze/thaw cycles and stained with Annexin V and PI to visualize apoptosis and necrosis. (b) 5×10^6 live U937 cells (lines 1+2), or apoptotic UV-irradiated U937 (lines 3+4) were cultured for 24 h either alone or in the presence of LL-37 ([…]) before cell free supernatant was collected. U397 were also lyzed by freeze-thaw cycles to induce primary necrosis and cultured for 1 h either alone or in the presence of LL-37 ([…]) before cell free supernatant was collected. 20 ul of the supernatants in buffer were loaded onto 1% agarose gel and the electrophoresis was ran for 1.5 hrs at 100V. The image was acquired with a Biorad gel imaging system.
LL-37 combined with dying tumor cells can bind tumor-derived self-DNA in-vitro. To test the ability of LL-37 to bind and protect self-DNA released by dying tumor cells, we generated apoptotic and necrotic tumor cells in the presence or absence of LL-37, and measured DNA contents in culture supernatants by electrophoresis. Primary necrosis induced by consecutive freeze and thaw cycles, and apoptosis with secondary necrosis induced by γ-irradiation at 20,000 rad followed by a 24 h culture (at 5×10^6 cells in 500 μl) were confirmed by Annexin plus PI staining (FIG. 26a).

## LLGDFFRKSKEKIGKEFKRIVQRIKDFLRNLVPRTES [LL-37]
Human genomic DNA
  Complex formation with DNA: complexed with DNA
B16 tumors; 100 μg LL-37 vs 40 μg CpG-2216
  IFN-α2 mRNA expression in tumor compared to CpG-A: more potent then the expression induced by CpG-A
B16 tumors; 100 μg injected, 6 h
  IFN-α2 mRNA expression in healthy muscle tissue: not LL-37-injected healthy muscle tissue
B16 tumors; 100 μg intratumoral
  IFN-α2 mRNA expression in B16 tumor: induced potent IFN-α2 mRNA expression; also recorded: IFN-α2 mRNA expression only in LL-37-injected tumors
B16 tumors; 100 μg intratumoral, Flt-L treated mice, 6-72 h
  Expression of pro-inflammatory and T-cell-derived cytokines in tumor: induces expression of pro-inflammatory and T-cell-derived cytokines
U937
  DNA detected in culture supernatants of dying tumor cells: exclusively detected DNA in supernatants of irradiated tumor cells cultured with LL-37
